Test results published in patent US8377883B2, “Peptide for anti-angiogenesis and use thereof” (Beijing Institute for Cancer Research, priority 2006, dated 2013).

What follows are molecules tested on mice liver cancer H22 cells (assay: Tumor suppression by FpAT and derivative peptides in liver cancer H22 tumor-bearing mouse model (Example 14)). Settings: peptides 50 μg/100 μl PBS/injection, angulus oculi medialis vein daily, 7 times; CTX 80 mg/KG; tumors weighed.
Format: in vivo, mice of Kunming strain
Experimental: Ninety 5-week old mice of Kunming strain purchased from Animal Center Of Chinese Academy Of Medical Sciences were inoculated subcutaneously in forelimb with mice liver cancer H22 cells (National Institute for the Control of Pharmaceutical and Biological Products) (5×10^6/100 μl/mouse). On the next day after inoculation, each kind of inoculated cells were divided randomly into […] with 10 mice per group. FpAT (50 μg/100 μl PBS/injection) and 7 kinds of derivative peptides thereof (see Table 5 below for detailed sequence):FpAT-N3d, FpAT-N6d, FpAT-N9d, FpAT-C3d, FpAT-C6d, FpAT-C9d, FpAT-N5d-C4d, and vehicle control (PBS:100 μl/injection) were injected in angulus oculi medialis vein, with CTX (cyclophosphamide) (80 mg/KG) as positive control daily, 7 times in total. The mice were sacrificed by dislocating the neck on the next day after administration was stopped, and the tumors were taken and weighed for a statistical analysis.
O=P1(N(CCCl)CCCl)NCCCO1 (centres unmarked) [CTX, cyclophosphamide, reference compound] gave a tumor suppressing rate of 89.9%.
Work on “H2N-Asp-Phe-Leu-Ala-Glu-Gly-COOH (H-DFLAEG-OH; listed as Homo sapiens) [FpAT-N5d-C4d]” yielded a tumor suppressing rate of 56.4%.
For “H2N-Asp-Ser-Gly-Glu-Gly-Asp-COOH (H-DSGEGD-OH; listed as Homo sapiens) [FpAT-C9d]”, the tumor suppressing rate was 34.5%.
For “H2N-Asp-Ser-Gly-Glu-Gly-Asp-Phe-Leu-Ala-COOH (H-DSGEGDFLA-OH; listed as Homo sapiens) [FpAT-C6d]”, the tumor suppressing rate was 32.3%.
Work on “H2N-Asp-Ser-Gly-Glu-Gly-Asp-Phe-Leu-Ala-Glu-Gly-Gly-COOH (H-DSGEGDFLAEGG-OH; listed as Homo sapiens) [FpAT-C3d]” yielded a tumor suppressing rate of 46.7%.
“H2N-Glu-Gly-Asp-Phe-Leu-Ala-Glu-Gly-Gly-Gly-Val-Arg-COOH (H-EGDFLAEGGGVR-OH; listed as Homo sapiens) [FpAT-N3d]” was tested, and the tumor suppressing rate was 63.3%.
“H2N-Glu-Gly-Gly-Gly-Val-Arg-COOH (H-EGGGVR-OH; listed as Homo sapiens) [FpAT-N9d]” showed a tumor suppressing rate of 34.5%.
“H2N-Phe-Leu-Ala-Glu-Gly-Gly-Gly-Val-Arg-COOH (H-FLAEGGGVR-OH; listed as Homo sapiens) [FpAT-N6d]” was tested, and the tumor suppressing rate was 57.6%.
